pEC50: −log10 of the molar value.
What was measured:
[1] = target: T1, human muscarinic M3 receptor (Homo sapiens, UniProt P20309); assay: Phospho-ERK1/2 assay, muscarinic M3; assay type: cell-based; details: for Emax: CHO, read-out: % Emax cf. ACh (M3)
T1 construct: expressed in transfected cells
Procedure, shortened: (§1)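 The assay used ERK1/2 phosphorylation as a common downstream read-out of Gq/11 and Gi/o receptor activation. CHO cells expressing each human receptor were exposed to agonist for five minutes at 37 °C after overnight serum starvation. Potency (pEC50) and maximal effect (Emax) came from the AlphaScreen signal.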

[2] = target: T2, human muscarinic M4 receptor (Homo sapiens, UniProt P08173); assay: Phospho-ERK1/2 assay, muscarinic M4; assay type: cell-based; details: for Emax: CHO, read-out: % Emax cf. ACh (M4)
T2 construct: expressed in transfected cells
T2 sequence (P08173 1-479): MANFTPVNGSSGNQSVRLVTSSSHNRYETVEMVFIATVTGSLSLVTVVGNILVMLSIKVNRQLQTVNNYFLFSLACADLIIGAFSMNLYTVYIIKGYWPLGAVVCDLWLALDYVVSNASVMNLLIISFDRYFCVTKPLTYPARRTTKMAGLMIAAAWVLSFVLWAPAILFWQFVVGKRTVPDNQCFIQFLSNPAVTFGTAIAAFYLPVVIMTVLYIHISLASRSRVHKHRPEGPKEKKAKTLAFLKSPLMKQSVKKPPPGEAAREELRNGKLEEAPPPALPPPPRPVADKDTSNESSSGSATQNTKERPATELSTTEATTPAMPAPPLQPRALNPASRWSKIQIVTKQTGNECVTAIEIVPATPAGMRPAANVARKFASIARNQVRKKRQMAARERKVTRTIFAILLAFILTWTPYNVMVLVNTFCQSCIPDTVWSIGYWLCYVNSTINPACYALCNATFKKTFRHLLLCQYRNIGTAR
Procedure, shortened: as §1

[3] = target: T3, human muscarinic M2 receptor (Homo sapiens, UniProt P08172); assay: Phospho-ERK1/2 assay, muscarinic M2; assay type: cell-based; details: for Emax: CHO, read-out: % Emax cf. ACh (M2)
T3 sequence (P08172 1-466): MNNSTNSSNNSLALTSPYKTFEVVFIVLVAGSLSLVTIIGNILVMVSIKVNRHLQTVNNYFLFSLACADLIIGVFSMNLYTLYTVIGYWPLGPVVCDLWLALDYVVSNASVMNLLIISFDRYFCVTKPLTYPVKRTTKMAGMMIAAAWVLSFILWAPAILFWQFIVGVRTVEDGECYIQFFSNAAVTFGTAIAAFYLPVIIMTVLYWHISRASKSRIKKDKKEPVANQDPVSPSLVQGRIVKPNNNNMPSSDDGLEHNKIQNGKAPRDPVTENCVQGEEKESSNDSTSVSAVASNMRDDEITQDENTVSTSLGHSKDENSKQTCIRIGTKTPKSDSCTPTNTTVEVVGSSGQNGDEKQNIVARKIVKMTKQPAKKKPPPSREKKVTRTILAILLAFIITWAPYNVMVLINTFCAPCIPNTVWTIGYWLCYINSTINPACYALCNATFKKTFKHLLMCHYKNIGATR
Procedure, shortened: as §1

Male Wistar rats = assay: Novel object recognition; assay type: in vivo; details: 10 and 30 mg/kg oral gavage 90 minutes prior to training; p<0.05
Method: The novel object recognition paradigm is based on the greater spontaneous exploration of a novel object, compared with a familiar object, shown by rodents (Ennaceur and Delacour, 1988). […] Male Wistar rats were assessed for cognitive ability in a test apparatus comprising an open-field arena placed in a sound-attenuated room under dimmed lighting. Images of the open-field were captured by digital camera, and viewed on a monitor in an adjoining room. Each rat was subjected to the procedure separately and care taken to remove any olfactory/taste cues by cleaning the arena and test objects with alcohol between trials and rats. All tests are video scored blind to treatment. Following a 10-minute habituation period, each rat was placed into the test arena in the presence of two identical objects (plastic shapes). Each rat was placed facing the same direction at the same position in the arena, and the time spent actively exploring the objects during a 5-minute training period (T1) was recorded. The rat is returned to its home cage between tests. After 24 hours, each rat was again placed in the test arena for 5 minutes (T2) in the presence of one of the familiar objects and a novel object, and the time spent exploring both objects again recorded. The presentation order and position of the objects (left/right) was randomized between rats to prevent bias from order or place preference. Doses of 3, 10 or 30 mg/kg of test compound were administered by oral gavage 90 minutes prior to training (n=8). Donepezil (0.1 mg/kg) and galanthamine (3 mg/kg) were administered via intraperitoneal injection 60 minutes prior to training. Vehicle-treated controls were employed for comparison.

T1 sequence (P20309 whole entry): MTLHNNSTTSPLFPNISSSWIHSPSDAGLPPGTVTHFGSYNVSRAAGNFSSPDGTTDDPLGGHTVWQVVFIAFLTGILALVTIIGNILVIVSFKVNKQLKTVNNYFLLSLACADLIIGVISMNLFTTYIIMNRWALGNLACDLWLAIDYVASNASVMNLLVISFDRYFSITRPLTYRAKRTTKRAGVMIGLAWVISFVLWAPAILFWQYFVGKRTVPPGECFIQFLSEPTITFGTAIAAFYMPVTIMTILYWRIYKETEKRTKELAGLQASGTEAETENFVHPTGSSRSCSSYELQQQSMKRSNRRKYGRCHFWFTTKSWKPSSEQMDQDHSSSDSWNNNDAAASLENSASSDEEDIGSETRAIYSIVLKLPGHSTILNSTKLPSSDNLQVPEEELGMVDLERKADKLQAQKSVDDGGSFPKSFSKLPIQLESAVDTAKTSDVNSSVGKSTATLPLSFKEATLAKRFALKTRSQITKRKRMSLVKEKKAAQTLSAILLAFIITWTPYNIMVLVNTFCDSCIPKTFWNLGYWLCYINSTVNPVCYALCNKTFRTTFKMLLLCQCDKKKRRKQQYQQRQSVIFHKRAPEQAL

Row | Compound | pEC50 [1] | Emax [1] [%] | pEC50 [2] | Emax [2] [%] | pEC50 [3] | Emax [3] [%] | novel object recognition memory vs vehicle-treated controls (Male Wistar rats)
1 | CCOC(=O)N1CCCC(N2CCC(C(=O)NC3(C)CCC3)CC2)CC1 (stereo not shown) [Example 27, ethyl 4-(4-((1-methylcyclobutyl)carbamoyl)piperidin-1-yl)azepane-1-carboxylate] | < 4.70 | 5 | 6.37 | 88 | < 4.70 | 56 | –
2 | CCOC(=O)N1CCC[C@H](N2CCC(C(=O)NC3(C)CCC3)CC2)CC1 [Example 65, ethyl (4S)-4-{4-[(1-methylcyclobutyl)carbamoyl]piperidin-1-yl)azepane-1-carbondate] | < 4.70 | 11 | 6.65 | 97 | < 4.70 | 7 | significantly improved novel object recognition memory

Source: US10973832B2, “Muscarinic M1 receptor agonists” (Heptares Therapeutics Limited, priority 2011, dated 2021)
